These compounds were tested on Pseudomonas aeruginosa (assay: Antibacterial activity against blaVIM2-harboring integrons containing Pseudomonas aeruginosa 42 isolate from ventilator-associated pneumonia patient).
Type: functional

Question: For CCN1CCN(C(=O)N[C@@H](C(=O)N[C@@H]2C(=O)N3[C@@H]2SC(C)(C)[C@@H]3C(=O)O)c2ccccc2)C(=O)C1=O [PIPERACILLIN], which Activity is on record?
Answer: The Activity was >256 µg/mL.

Question: With C[C@@H](O)[C@H]1C(=O)N2C(C(=O)O)=C(SCCNC=N)C[C@H]12 [IMIPENEM ANHYDROUS] as the compound, how does the Activity read?
Answer: Its Activity is >32 µg/mL.

Question: C[C@H]1[C@H](NC(=O)/C(=N\OC(C)(C)C(=O)O)c2csc(N)n2)C(=O)N1S(=O)(=O)O [AZTREONAM] was tested. Which Activity did it give?
Answer: The Activity was >256 µg/mL.

Question: How did the Activity turn out when CO/N=C(\C(=O)N[C@@H]1C(=O)N2C(C(=O)[O-])=C(C[N+]3(C)CCCC3)CS[C@H]12)c1csc(N)n1 [CEFEPIME] was run?
Answer: The Activity was >256 µg/mL.

Question: With C[C@@H](O)[C@H]1C(=O)N2C(C(=O)O)=C(S[C@@H]3CN[C@H](C(=O)N(C)C)C3)[C@H](C)[C@H]12 [MEROPENEM] as the compound, how does the Activity read?
Answer: Its Activity is >32 µg/mL.

Question: For NCC[C@H](O)C(=O)N[C@@H]1C[C@H](N)[C@@H](O[C@H]2O[C@H](CN)[C@@H](O)[C@H](O)[C@H]2O)[C@H](O)[C@H]1O[C@H]1O[C@H](CO)[C@@H](O)[C@H](N)[C@H]1O [AMIKACIN], which Activity is on record?
Answer: The Activity was 8 µg/mL.

Question: For CC(C)(O/N=C(\C(=O)N[C@@H]1C(=O)N2C(C(=O)[O-])=C(C[n+]3ccccc3)CS[C@H]12)c1csc(N)n1)C(=O)O [CEFTAZIDIME], which Activity is on record?
Answer: The Activity was 96 µg/mL.

Question: O=C(O)c1cn(C2CC2)c2cc(N3CCNCC3)c(F)cc2c1=O [CIPROFLOXACIN] was tested. Which Activity did it give?
Answer: The Activity was >32 µg/mL.

Question: Which Activity does the source give for COLISTIN here?
Answer: Its Activity is 1 µg/mL.
